From patent US8952013B2, “Controlled release sterile injectable aripiprazole formulation and method” (Otsuka Pharmaceutical Co., Ltd., priority 2003, dated 2015)

Tests used:
[1] = at room temperature; cited from earlier work
[2] = hygroscopicity: water content after storage in a dessicator; assay type: physicochemical; conditions: after 24 hours inside a dessicator at 60° C. and a humidity of 100%
Description: Aripiprazole Anhydrous Crystals B employed in the present invention have low hygroscopicity. For example, Aripiprazole Anhydrous Crystals B employed in the present invention maintain a water content of 0.4% or less after 24 hours inside a dessicator set at a temperature of 60° C. and a humidity of 100%.
Well-known methods of measuring water content can be used as long as they are methods commonly used for measuring the water content of crystals. For example, a method such as the Karl Fischer method can be used.

| water content [2] [%] | SMILES | aqueous solubility [1] [µg/mL] |
| --- | --- | --- |
| – | O=C1CCc2ccc(OCCCCN3CCN(c4cccc(Cl)c4Cl)CC3)cc2N1 [Aripiprazole] | < 1 |
| ≤ 0.4 | O=C1CCc2ccc(OCCCCN3CCN(c4cccc(Cl)c4Cl)CC3)cc2N1 [Aripiprazole Anhydrous Crystals B, Aripiprazole] | – |
